Experimental findings from ChEMBL document CHEMBL2385023, “Negative allosteric modulators of metabotropic glutamate receptor subtype” (ACS Med Chem Lett, 2013) are described below.

In series [1] the test system is Mus musculus. As to the kind of experiment: Anxiolytic activity in ip dosed Harlan CD1 mouse assessed as inhibition of marble burying activity administered 15 to 30 mins prior to test. It counts as functional.
Series [2] in a line: Oral bioavailability in cynomolgus monkey. It counts as ADME, organism-based, Macaca fascicularis. The note with it: in vivo.
Series [3] in a line: Ratio of drug level in brain to plasma in mouse at 10 mg/kg, po. The class given is ADME, organism-based. More on the design: dose 10 mg/kg, route oral. As to conditions: read-out: BPR.
Series [4] is described as follows: Oral bioavailability in rat. The class given is ADME, organism-based. The note with it: in vivo.
Series [5] in a line: Plasma protein binding in human. The note with it: read-out: PPB (converted). The class given is ADME, cell-free.

Structures are written as SMILES.

What is called bioavailability is the share of a dose that reaches the circulation, judged against a reference dose that is usually intravenous.

As to `Cc1cc(Oc2cncnc2)cc(C(=O)Nc2ccc(F)cn2)n1`, the ED in series [1] amounted to 10 mg/kg. The bioavailability in series [2] came to 42%; in series [4] it was 30%. In series [3], the Kp came to 5.9. In series [5], the fraction unbound is 0.086.

As for `Cc1cc(Oc2cnc(C)nc2)cc(C(=O)Nc2ccc(F)cn2)n1`, the ED in series [1] stood at 10 mg/kg.

Regarding `CCc1cccc(NC(=O)c2cc(Oc3cncnc3)cc(C)n2)n1`, in series [1], the ED is 10 mg/kg. The same molecule gave a bioavailability in series [4] of 39%.

For the molecule `Cc1cc(Oc2cncc(F)c2)cc(C(=O)Nc2ccc(F)cn2)n1`, the ED in series [1] came to 30 mg/kg. For the same molecule, the bioavailability was determined as 25% in series [2] and 67% in series [4]. Moreover, in series [3], the Kp came out at 4.7.
